The test system of data set [1] is HEK cells. As to the kind of experiment: Cell proliferation assay (WST-1). The format is cell-based, human. On the procedure:
Human prostate cancer PC-3 cells were cultured and maintained in EMEM (ATCC), non-prostate HEK (human embryonic kidney) cells were cultured in DMEM, human prostate cancer DU145, LNCaP, 22Rv1 cells were cultured in RPMI 1640 (ATCC), and normal BPH-1 prostate cells and prostate cancer C4-2 cell line were cultured in RPMI 1640 (ATCC), all containing 10% fetal bovine serum (Atlanta Biologicals) and 1% penicillin/streptomycin (Invitrogen). Cells were grown at 37° C. in humidified air with 5% CO2 and passaged every fourth to fifth day following trypsinization with trypsin/EDTA (Invitrogen).^16
PC-3, LNCaP, DU 145, 22Rv1, C4-2, BPH-1, and HEK cells were grown to a density of 2000 cells/well in 96 well plates and treated with [D-Trp]CJ-15,208 or other peptides for 24-72 h in duplicate. Media containing [D-Trp]CJ-15,208 was changed every 24 h. The proliferation of treated cells was determined using the cell proliferation reagent WST-1 (Roche) per the manufacturer's instructions and compared to […] control cells in 1% DMSO in media. After treatment with compound 10 μL of the reagent was added to the well in 100 μL culture media, and the cells incubated at 37° C. for 30 min. The absorbance of the media in each well was measured at […] using a plate reader (BioTek). The percentage cell proliferation was normalized to vehicle treated control cells calculated as: (mean absorbance of sample/mean absorbance of control cells)×100.^38
Each experiment was performed in triplicate unless otherwise stated in the figure legend. GraphPad Prism 5 was used to determine IC50 values. Data represent the mean value+/−SEM. Compound vs. vehicle treated cells in the cell cycle phase and apoptosis experiments (FIGS. 5-8) were compared using the student's t-test, with a two-tailed, unpaired method, using the Prism software. The effects of compound vs. vehicle treatment on protein levels (FIG. 10) were evaluated by one-way ANOVA with Dunnett's test for multiple comparisons.

Data set [2] concerns Akt in PC-3 cells. As to the kind of experiment: Western blot of p-Akt/total Akt protein levels. The format is cell-based, human. The conditions noted are these: 48 h. As to the method: Cells were seeded in 6 well plates at a density of 1×10^5 cells/well and grown to 75% confluence. Cells were treated with [D-Trp]CJ-15,208 at the indicated concentrations. Cells were then harvested as described above, and the cell pellets lysed in RIPA buffer consisting of 10 mM Tris HCl, pH 8.0, 150 mM NaCl, 1 mM EDTA, 1% Triton-X-100, 0.1% SDS, 1% sodium deoxycholate, and a protease inhibitor cocktail #P8340 (Sigma). Cell lysates were centrifuged at 13×1000 rpm for 15 min and the supernatants collected. The total protein concentration was measured in cell lysates using the standard Bradford assay. SDS gel electrophoresis was performed using 4-20% polyacrylamide gel (BioRad). […] Signal densities of the protein bands were determined using ImageJ software (NIH) and normalized to the internal loading control (actin).
Each experiment was performed in triplicate unless otherwise stated in the figure legend. […] The effects of compound vs. vehicle treatment on protein levels (FIG. 10) were evaluated by one-way ANOVA with Dunnett's test for multiple comparisons.
(In western blotting, separated proteins are transferred to a membrane and probed.)

The subject of data set [3] is BPH-1 cells. As to the kind of experiment: Cell viability assay (Trypan Blue). The format is cell-based. The conditions noted are these: BPH-1 normal prostate cells, 1-40 μM, 48 h. As to the method: The viability of prostate cancer cells was determined using Trypan Blue (Sigma) per the manufacturer's instructions. Cells were grown in 6 well plates to a density of 1×10^5 cells/well to 75% confluency and treated with compound in 0.5% DMSO at the indicated concentrations for 24-72 h, with 0.5% DMSO as the vehicle control. After treatment, the cell media from each well was collected. The cells were washed with phosphate buffer saline (PBS), trypsinized, and collected. All of the cells, combined media, and washes were centrifuged at 250×g for 5 min. The supernatant was discarded, and the cell pellet was resuspended in 500 μL PBS. Trypan blue (10 μL) was added to 100 μL of resuspended cells, and the solution incubated for 10 min. The cell number in 10 μL was then counted using a hematocytometer. Viable cells (not stained) were distinguished from dead cells (colored blue) and the % viable cells calculated as follows: [(number of white cells)/(number of total cells (white+blue))]*100 and compared with untreated cells.^16

Data set [4] relates to transfected HEK-293 cells. As to the kind of experiment: c-Myc overexpression, Annexin V-APC/PI apoptosis assay. In kind it is cell-based, human. The conditions noted are these: 10 μM, 48 h. As to the method:
The extent of apoptosis was analyzed by detecting surface expression of phosphatidylserine on apoptotic cells using an Annexin V-APC/PI dual staining apoptosis detection kit I (BD Biosciences) according to the manufacturer's protocol. Following treatment of PC-3 cells with 10 μM [D-Trp]CJ-15,208 or vehicle for 24 h or 48 h, the cells were collected, washed twice with cold PBS, and resuspended in 1× binding buffer at a concentration of 1×10^6 cells/mL. Cell suspension (100 μL) was transferred to a 5 ml culture tube, and 5 μL of Annexin V-APC and 25 μL of PI (50 μg/mL) were added. The cells were incubated for 15 min at room temperature in the dark with gentle vortexing, 400 μL of 1× binding buffer was then added to each sample, and the samples were analyzed using a Beckman-Coulter MoFlo XDP flow cytometer within one hour. The number of viable, apoptotic and necrotic cells were quantified using FlowJo v10.0.7. The apoptosis fraction (%) was calculated as (number of apoptotic cells/the number of total cells observed)×100%.^38
Forced expression of c-Myc in HEK 293 cells was performed using X-temeGENE HP #6366244001 (Sigma). Cells were cultured in antibiotic free DMEM supplemented with 10% FBS and transfected with pcDNA3-HA-HA-c-Myc #74164 (Addgene). Empty-vector pcDNA3-EV was used as a control. […] Samples were analyzed using a BD FACSCanto-II cell analyzer and quantified in FlowJo v10.2. […]

Each structure is given as a SMILES string. “Also recorded” adds a separate entry of the source. Non-standard residues stand in square brackets, D forms with d. Residues, ends and D or L forms follow the SMILES beside them.

Regarding `O=C1N[C@H](Cc2c[nH]c3ccccc23)C(=O)N[C@@H](Cc2ccccc2)C(=O)N2CCC[C@@H]2C(=O)N[C@H]1Cc1ccccc1` [[D-Trp]CJ-15,208, cyclo[Phe-D-Pro-Phe-D-Trp]] (cyclo(F[dP]F[dW])), the “IC50, cell growth” value in data set [1] (48 h) and in data set [1] (72 h) was “No effect” throughout. For the same compound, in data set [1] (time not stated), the “effect on cell proliferation / cytotoxicity” value is “No cytotoxicity was observed; also recorded: did not prevent cell proliferation”. In data set [2] (PC-3, highest concentration (50 μM)), the “total Akt protein levels” value is “significant decrease”. In addition, in data set [2] (PC-3, increasing concentrations), the “cellular levels of p-Akt” value is “did not change significantly”. Also, in data set [3], the “cell death (Trypan blue)” value is recorded as “no evidence of cell death”. Moreover, the values for the early apoptosis result in data set [4] (HEK-293 overexpressing c-Myc) and in data set [4] (HEK-293 transfected with empty vector) were “significant increase in early apotosis” and “no significant difference”, respectively.

These data come from patent US11510964B2, “Macrocyclic peptides to decrease c-Myc protein levels and reduce cancer cell growth” (University of Kansas, priority 2017, dated 2022).
